51 compounds from ChEMBL document CHEMBL5726731, “Substituted benzenesulfonamides as sodium channel blockers” (2019) can be followed below.

The term IC50 denotes the concentration needed to halve the response being measured. High values mean weaker potency in that assay, low ones greater potency in that assay.

Assay [1] in a line: (§1) Measurement of Sodium Ion Channel Blocking Effects: In order to measure the sodium ion channel blocking effect, an IonFlux16 Auto patch clamp system (Fluxion, Inc.) and a plate for exclusive use were used. The cells were distributed in an extracellular solution (4 mM KCl, 138 mM NaCl, 1 mM MgCl2, 1.8 mM CaCl2, 5.6 mM glucose, 10 mM HEPES, pH 7.45), and then dispensed in the specified region of the plate, and each of the prepared compound samples was diluted at various concentrations, and then dispensed in the specified region of the plate. It is filed as cell-based. Background: Patch clamp records ionic current or voltage across a cell membrane.

A short description of assay [2]: as §1. In kind it is cell-based. This is another data set of the same source.

SMILES strings stand for the structures.

`CNC1CCN(c2cc(F)ccc2Nc2cc(F)c(S(=O)(=O)Nc3ccncn3)cc2Cl)C1` (centres undefined) returned an IC50 in assay [1] of 250 nM.

Consider `CNCCN(C)c1cc(C(F)(F)F)ccc1Nc1cc(F)c(S(=O)(=O)Nc2ncc(F)cn2)cc1Cl`, for which the IC50 in assay [2] is > 10000 nM; in assay [1], 60 nM.

In turn, `CNC1CCN(c2cc(F)ccc2Nc2cc(F)c(S(=O)(=O)Nc3ncns3)cc2Cl)C1` (centres undefined) yielded an IC50 in assay [1] of 1400 nM.

As for `CNC1CCN(c2cc(F)ccc2Nc2cc(F)c(S(=O)(=O)Nc3ccn(C)n3)cc2Cl)C1` (centres undefined), the IC50 in assay [1] worked out at 390 nM.

Turning to `C[C@@H]1CNCCN1c1cc(Cl)ccc1Nc1cc(F)c(S(=O)(=O)Nc2cscn2)cc1Cl`, the IC50 was 6720 nM in assay [2] and 103 nM in assay [1].

In assay [1], `CNCCN(C)c1ccccc1Nc1cc(F)c(S(=O)(=O)Nc2ncc(Cl)s2)cc1Cl` returned an IC50 of 4 nM.

For `CNC1CCN(c2c(F)cccc2Nc2cc(F)c(S(=O)(=O)Nc3cscn3)cc2Cl)C1` (centres undefined), the values for the IC50 in assay [2] and in assay [1] were > 10000 nM and 86 nM, respectively.

Take `CNCCN(C)c1cc(OC)ccc1Nc1cc(F)c(S(=O)(=O)Nc2ncc(F)cn2)cc1Cl`: in assay [1], half-maximal inhibition (IC50) required 470 nM.

Take `CNCCN(C)c1cc(C#N)ccc1Nc1cc(F)c(S(=O)(=O)Nc2cscn2)cc1Cl`: the IC50 is > 10000 nM in assay [2] and 120 nM in assay [1].

`CN[C@@H]1CCCN(c2cc(F)ccc2Nc2ccc(S(=O)(=O)Nc3cscn3)cc2Cl)C1`: the IC50 in assay [2] is > 10000 nM; in assay [1], 49 nM.

On to `CNC1CCN(c2cc(F)ccc2Nc2cc(F)c(S(=O)(=O)Nc3cc(C)on3)cc2Cl)C1` (centres undefined), for which the IC50 was > 10000 nM in assay [2] and 360 nM in assay [1].

`CNCCN(C)c1cc(F)ccc1Nc1cc(F)c(S(=O)(=O)Nc2ncc(C)s2)cc1Cl` yielded an IC50 in assay [1] of 50 nM.

For the compound `CNCCN(C)c1cc(C#N)ccc1Nc1cc(F)c(S(=O)(=O)Nc2ncc(F)cn2)cc1Cl`, the IC50 in assay [2] was > 10000 nM; in assay [1] it was 1090 nM.

As for `CN1CCN(c2cc(OC(F)(F)F)ccc2Nc2cc(F)c(S(=O)(=O)Nc3cscn3)cc2Cl)CC1`, the figures for the IC50 in assay [2] and in assay [1] were > 10000 nM and 28 nM, respectively.

For `CNC1CCN(c2ccccc2Nc2ccc(S(=O)(=O)Nc3cscn3)c(F)c2)C1` (centres undefined), the IC50 in assay [2] is > 10000 nM; in assay [1], 53 nM.

In the case of `CNC1CCN(c2cc(C(F)(F)F)ccc2Nc2ccc(S(=O)(=O)Nc3cscn3)c(F)c2)C1` (centres undefined), the IC50 in assay [2] was > 10000 nM; in assay [1] it was 58 nM.

Consider `CNCCN(C)c1cc(Cl)ccc1Nc1cc(F)c(S(=O)(=O)Nc2ncc(F)cn2)cc1Cl`, for which the IC50 in assay [1] is 120 nM.

In the case of `CNCCN(C)c1cc(OC)ccc1Nc1cc(F)c(S(=O)(=O)Nc2ncc(F)s2)cc1Cl`, in assay [1], the IC50 turned out to be 184 nM.

Compound `CNCCN(C)c1cc(Cl)ccc1Nc1cc(F)c(S(=O)(=O)Nc2cscn2)cc1Cl` yielded an IC50 in assay [1] of 50 nM.

Compound `CNCCN(C)c1cc(F)ccc1Nc1cc(F)c(S(=O)(=O)Nc2ncco2)cc1Cl` had an IC50 in assay [1] of 360 nM.

Take `CN(C)CCN(C)c1cc(F)ccc1Nc1cc(F)c(S(=O)(=O)Nc2ncc(Cl)s2)cc1Cl`: the IC50 in assay [1] worked out at 60 nM.

As for `CNCCN(C)c1cc(Cl)ccc1Nc1cc(F)c(S(=O)(=O)Nc2nccs2)cc1Cl`, the IC50 in assay [1] stood at 20 nM.

`CNC1CCN(c2cc(F)ccc2Nc2cc(F)c(S(=O)(=O)Nc3cscn3)cc2Cl)C1` (centres undefined): the IC50 in assay [2] is > 10000 nM.

As to `CNC1CCN(c2ccccc2Nc2ccc(S(=O)(=O)Nc3cscn3)cc2Cl)C1` (centres undefined), the IC50 in assay [2] was > 10000 nM; in assay [1] it was 13 nM.

Regarding `CNC1CCN(c2cc(F)ccc2Nc2ccc(S(=O)(=O)Nc3cscn3)cc2)C1` (centres undefined), the IC50 in assay [2] was > 10000 nM; in assay [1], 396 nM.

For `CNC1CCN(c2cc(F)ccc2Nc2cc(F)c(S(=O)(=O)Nc3cnccn3)cc2Cl)C1` (centres undefined), the IC50 is > 10000 nM in assay [2] and 300 nM in assay [1].

`CNCCN(C)c1ccccc1Nc1cc(F)c(S(=O)(=O)Nc2cscn2)cc1Cl`: the IC50 is > 10000 nM in assay [2] and 40 nM in assay [1].

Compound `CN(C)CCN(C)c1ccccc1Nc1cc(F)c(S(=O)(=O)Nc2ncc(Cl)s2)cc1Cl` displayed an IC50 in assay [1] of 3670 nM.

Regarding `C[C@H]1CN(c2cc(Cl)ccc2Nc2cc(F)c(S(=O)(=O)Nc3cscn3)cc2Cl)CCN1`, the IC50 was > 10000 nM in assay [2] and 1500 nM in assay [1].

`CNCCN(C)c1cc(F)ccc1Nc1cc(F)c(S(=O)(=O)Nc2ncc(F)s2)cc1Cl`: the IC50 in assay [2] was 1830 nM; in assay [1], 9 nM.

On to `CNCCN(C)c1cc(Cl)ccc1Nc1cc(F)c(S(=O)(=O)Nc2ccc(F)cn2)cc1Cl`, for which half-maximal inhibition in assay [1] (IC50) required 80 nM.

Consider `CN[C@@H]1CCCN(c2cc(F)ccc2Nc2cc(F)c(S(=O)(=O)Nc3cscn3)cc2Cl)C1`, for which the IC50 in assay [2] is > 10000 nM; in assay [1] it was 66 nM.

The compound `CNCCN(C)c1ccccc1Nc1cc(F)c(S(=O)(=O)Nc2ncc(F)s2)cc1Cl` gave an IC50 in assay [1] of 27 nM.

Take `CNCCN(C)c1cc(F)ccc1Nc1cc(F)c(S(=O)(=O)Nc2ccccn2)cc1Cl`: the IC50 in assay [2] was > 10000 nM; in assay [1] it was 110 nM.

In the case of `CNCCN(C)c1cc(F)ccc1Nc1cc(F)c(S(=O)(=O)Nc2nccs2)cc1Cl`, the 50% inhibitory concentration (IC50) is > 10000 nM in assay [2] and 20 nM in assay [1].

In the case of `CNCCN(C)c1ccccc1Nc1cc(F)c(S(=O)(=O)Nc2cc(C(C)(C)C)on2)cc1Cl`, the IC50 in assay [1] is > 10000 nM.

Regarding `CNCCN(C)c1cc(OC)ccc1Nc1cc(F)c(S(=O)(=O)Nc2ncc(Cl)s2)cc1Cl`, in assay [1], the IC50 stood at 6 nM.

In assay [1], `CN(C)CCN(C)c1cc(F)ccc1Nc1cc(F)c(S(=O)(=O)Nc2nccs2)cc1Cl` gave an IC50 of 240 nM.

For the compound `CNCCN(C)c1ccccc1Nc1cc(F)c(S(=O)(=O)Nc2ncc(F)cn2)cc1Cl`, the IC50 in assay [2] is > 10000 nM; in assay [1], 100 nM.

With `CNCCN(C)c1ccccc1Nc1cc(F)c(S(=O)(=O)Nc2cc(C)on2)cc1Cl`, the IC50 in assay [1] worked out at 20 nM.

In the case of `CNC1CCN(c2cc(F)ccc2Nc2cc(F)c(S(=O)(=O)Nc3cncnc3)cc2Cl)C1` (centres undefined), the IC50 in assay [2] and in assay [1] was > 10000 nM in each case.

For the compound `CNC1CCN(c2cc(OC)ccc2Nc2cc(F)c(S(=O)(=O)Nc3cscn3)cc2Cl)C1` (centres undefined), the IC50 in assay [2] was > 10000 nM; in assay [1] it was 12 nM.

With `CNC1CCN(c2ccccc2Nc2ccc(S(=O)(=O)Nc3cscn3)cc2)C1` (centres undefined), the IC50 is > 10000 nM in assay [2] and 51 nM in assay [1].

Regarding `CNC1CCN(c2cc(Cl)ccc2Nc2cc(F)c(S(=O)(=O)Nc3cscn3)cc2Cl)C1` (centres undefined), the results for the IC50 in assay [2] and in assay [1] were > 10000 nM and 26 nM, respectively.

The compound `CNCCN(C)c1cc(F)ccc1Nc1cc(F)c(S(=O)(=O)Nc2cc(C(C)(C)C)on2)cc1Cl` had an IC50 in assay [1] of 190 nM.

Turning to `CNCCN(C)c1cc(F)ccc1Nc1cc(F)c(S(=O)(=O)Nc2ncc(Cl)s2)cc1Cl`, the IC50 in assay [2] was found to be 5540 nM; in assay [1] it was 8 nM.

For the compound `CNC1CCN(c2cc(F)ccc2Nc2cc(F)c(S(=O)(=O)Nc3ncc(F)cn3)cc2Cl)C1` (centres undefined), the results for the IC50 in assay [2] and in assay [1] were > 10000 nM and 110 nM, respectively.

As for `CNCCN(C)c1cc(C#N)ccc1Nc1cc(F)c(S(=O)(=O)Nc2ccc(F)cn2)cc1Cl`, the values for the IC50 in assay [2] and in assay [1] were > 10000 nM and 230 nM, respectively.

Regarding `CNCCN(C)c1cc(C(F)(F)F)ccc1Nc1cc(F)c(S(=O)(=O)Nc2cscn2)cc1Cl`, the figures for the IC50 in assay [2] and in assay [1] were 8200 nM and 30 nM, respectively.

Consider `CNCCN(C)c1ccccc1Nc1cc(F)c(S(=O)(=O)Nc2cc(C)[nH]n2)cc1Cl`, for which, in assay [1], the IC50 was > 10000 nM.

For `CNCCN(C)c1cc(F)ccc1Nc1cc(F)c(S(=O)(=O)Nc2cc(C)[nH]n2)cc1Cl`, in assay [1], 240 nM corresponded to half-maximal inhibition (IC50).
